From patent US9120756B2, “Substituted phenylureas and phenylamides as vanilloid receptor ligands” (Gruenenthal GmbH, priority 2009, dated 2015)

What follows are molecules tested against T1, hVR1 (Homo sapiens (Human), UniProt Q8NER1) (assay: FLIPR Ca2+ influx assay on CHO K1 cells transfected with the VR1 gene, capsaicin stimulus (method II)). Conditions: CHO-K1, read-out: Ki (human being) Cap column: inhibition (as a percentage) @ 5 μM, capsaicin, inhibition determined at 5 μM.
Type: cell-based
Design: key to Ki (human being) Cap: result in words (NE / AG): AG=agonist; pAG=partial agonist; NE=no effect
Description: In the process, the Ca^2+ influx is quantified in the FLIPR assay with the aid of a Ca^2+-sensitive dye (type Fluo-4, Molecular Probes Europe BV, Leiden, the Netherlands) in a fluorescent imaging plate reader (FLIPR, Molecular Devices, Sunnyvale, USA), as described hereinafter.
The agonistic or antagonistic effect of the substances to be tested on the vanilloid receptor 1 (VR1) can also be determined using the following assay. In this assay, the influx of Ca^2+ through the channel is quantified with the aid of a Ca^2+-sensitive dye (type Fluo-4, Molecular Probes Europe BV, Leiden, the Netherlands) in a fluorescent imaging plate reader (FLIPR, Molecular Devices, Sunnyvale, USA).
Chinese hamster ovary cells (CHO K1 cells, European Collection of Cell Cultures (ECACC) United Kingdom) are stably transfected with the VR1 gene. For functional testing, these cells are plated out on poly-D-lysine-coated black 96-well plates having a clear base (BD Biosciences, Heidelberg, Germany) at a density of 25,000 cells/well. The cells are incubated overnight at 37° C. and 5% CO2 in a culture medium (Ham's F12 nutrient mixture, 10% by volume of FCS (foetal calf serum), 18 μg/ml of L-proline). The next day the cells are incubated with Fluo-4 (Fluo-4 2 μM, 0.01% by volume of Pluronic F127, Molecular Probes in HBSS (Hank's buffered saline solution), Gibco Invitrogen GmbH, Karlsruhe, Germany) for 30 minutes at 37° C. Subsequently, the plates are washed three times with HBSS buffer and after further incubation for 15 minutes at RT used for Ca^2+ measurement in a FLIPR assay. The Ca^2+-dependent fluorescence is measured before and after the addition of the substances to be tested (λex wavelength=488 nm, λem=540 nm). Quantification is carried out by measuring the highest fluorescence intensity (FC, fluorescence counts) over time.
The FLIPR protocol consists of 2 substance additions. First the compounds to be tested (10 μM) are pipetted onto the cells and the Ca^2+ influx is compared with the control (capsaicin 10 μM) (% activation based on the Ca^2+ signal after the addition of 10 μM of capsaicin). After 5 minutes' incubation, 100 nM of capsaicin are applied and the Ca^2+ influx is also determined.
Desensitising agonists and antagonists led to suppression of the Ca^2+ influx.
Starting from the percentage displacement caused by different concentrations of the compounds to be tested of general formula I, IC50 inhibitory concentrations which cause a 50-percent displacement of capsaicin were calculated. Ki values for the test substances were obtained by conversion by means of the Cheng-Prusoff equation (Cheng, Prusoff; Biochem. Pharmacol. 22, 3099-3108, 1973).

T1 sequence (Q8NER1 whole entry): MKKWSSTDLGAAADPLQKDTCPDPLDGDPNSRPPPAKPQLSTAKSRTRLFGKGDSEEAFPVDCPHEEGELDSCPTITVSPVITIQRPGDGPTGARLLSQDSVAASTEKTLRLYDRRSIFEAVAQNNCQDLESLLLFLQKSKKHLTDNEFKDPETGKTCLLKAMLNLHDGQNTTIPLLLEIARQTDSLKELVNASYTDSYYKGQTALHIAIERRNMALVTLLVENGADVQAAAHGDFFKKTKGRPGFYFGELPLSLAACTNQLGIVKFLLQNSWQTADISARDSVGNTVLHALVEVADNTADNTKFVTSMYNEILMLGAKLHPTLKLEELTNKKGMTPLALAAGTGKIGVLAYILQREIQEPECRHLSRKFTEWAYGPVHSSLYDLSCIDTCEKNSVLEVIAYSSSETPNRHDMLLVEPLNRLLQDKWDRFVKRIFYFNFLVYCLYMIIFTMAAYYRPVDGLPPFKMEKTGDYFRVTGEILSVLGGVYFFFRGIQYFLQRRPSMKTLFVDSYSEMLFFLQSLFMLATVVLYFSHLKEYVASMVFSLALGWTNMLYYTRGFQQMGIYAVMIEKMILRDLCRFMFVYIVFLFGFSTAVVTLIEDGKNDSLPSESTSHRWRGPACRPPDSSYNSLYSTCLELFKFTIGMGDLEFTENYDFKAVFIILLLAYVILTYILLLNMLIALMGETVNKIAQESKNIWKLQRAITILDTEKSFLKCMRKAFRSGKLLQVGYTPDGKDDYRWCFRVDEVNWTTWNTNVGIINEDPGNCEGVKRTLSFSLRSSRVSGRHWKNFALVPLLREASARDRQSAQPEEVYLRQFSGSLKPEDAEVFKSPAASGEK

Molecule | inhibition at 5 µM [%]
CN(C(=O)NCc1cc(C(F)(F)F)nn1-c1cccc(Cl)c1)c1cccc(F)c1 [Example 123, 3-((1-(3-chlorophenyl)-3-(trifluoromethyl)-1H-pyrazol-5-yl)methyl)-1-(3-fluorophenyl)-1-methylurea] | 44
CCCCCn1nc(C(F)(F)F)cc1CNC(=O)Cc1cccc(F)c1 [Example 131, 2-(3-fluorophenyl)-N-((1-pentyl-3-(trifluoromethyl)-1H-pyrazol-5-yl)methyl)acetamide] | 58
COc1ccc(Cn2nc(C(F)(F)F)cc2CNC(=O)Cc2cccc(F)c2)cc1 [Example 132, 2-(3-fluorophenyl)-N-((1-(4-methoxybenzyl)-3-(trifluoromethyl)-1H-pyrazol-5-yl)methyl)acetamide] | 34
CC(C)(C)c1cc(CNC(=O)Cc2cccc(F)c2)n(NCC(F)(F)F)n1 [Example 133, N-((3-tert-butyl-1-(2,2,2-trifluoroethylamino)-1H-pyrazol-5-yl)methyl)-2-(3-fluorophenyl)acetamide] | 12
CC(C)(C)c1nc(CNC(=O)Cc2cccc(F)c2)n(-c2cccc(Cl)c2)n1 [Example 135, N-((3-tert-butyl-1-(3-chlorophenyl)-1H-1,2,4-triazol-5-yl)methyl)-2-(3-fluorophenyl)acetamide] | 24

Same assay, conditions: CHO-K1, read-out: Ki (human being) inhibition (as a percentage) @ 1 μM, capsaicin, inhibition determined at 1 μM

Molecule | inhibition at 1 µM [%]
CC(C(=O)NCc1cc(C(F)(F)F)nn1-c1cccc(Cl)c1)c1ccc(C(=O)Nc2ccccc2)cc1 (stereo not shown) [Example 143, 4-(1-((1-(3-chlorophenyl)-3-(trifluoromethyl)-1H-pyrazol-5-yl)methylamino)-1-oxopropan-2-yl)-N-phenylbenzamide] | 56

Same assay, conditions: capsaicin

Molecule | Ki (human being) Cap: result in words (NE / AG)
CC(C(=O)NCc1cc(C(C)(C)C)nn1-c1cccc(Cl)c1)c1ccc(C2CC2)c(F)c1 (stereo not shown) [Example 125, N-((3-tert-butyl-1-(3-chlorophenyl)-1H-pyrazol-5-yl)methyl)-2-(4-cyclopropyl-3-fluorophenyl)propanamide] | AG
O=C(NCc1cc(C(F)(F)F)nn1-c1cccc(Cl)c1)Nc1ccc(C#CC2CC2)c(F)c1 [Example 139, 1-((1-(3-chlorophenyl)-3-(trifluoromethyl)-1H-pyrazol-5-yl)methyl)-3-(4-(cyclopropylethynyl)-3-fluorophenyl)urea] | AG
COCCOCc1ccc(C(C)C(=O)NCc2cc(C(C)(C)C)nn2-c2cccc(Cl)c2)cc1F (stereo not shown) [Example 142, N-((3-tert-butyl-1-(3-chlorophenyl)-1H-pyrazol-5-yl)methyl)-2-(3-fluoro-4-((2-methoxyethoxy)methyl)phenyl)propanamide] | AG
CC(C)(C)c1cc(CNC(=O)Nc2ccc(N3CCOCC3)c(F)c2)n(-c2cccc(Cl)c2)n1 [Example 144, 1-((3-tert-butyl-1-(3-chlorophenyl)-1H-pyrazol-5-yl)methyl)-3-(3-fluoro-4-morpholinphenyl)urea] | AG

Same assay, conditions: capsaicin (Cap), read-out: Ki (human being) [nM] Cap

Molecule | Ki [nM]
CC(C(=O)NCc1cc(C(C)(C)C)nn1-c1cccc(Cl)c1)c1ccc(N2CCCS2(=O)=O)c(F)c1 (stereo not shown) [Example 55, N-((3-tert-butyl-1-(3-chlorophenyl)-1H-pyrazol-5-yl)methyl)-2-[4-(1,1-dioxidoisothiazolidin-2-yl)-3-fluorophenyl]propanamide] | 114
O=C(NCc1cc(C(F)(F)F)nn1-c1cccc(Cl)c1)Nc1ccc(C2CC2)c(F)c1 [Example 126, 1-((1-(3-chlorophenyl)-3-(trifluoromethyl)-1H-pyrazol-5-yl)methyl)-3-(4-cyclopropyl-3-fluorophenyl)urea] | 31.4
CC(C(=O)NCc1cc(C(C)(C)C)nn1-c1ccccn1)c1ccc(CNS(C)(=O)=O)c(F)c1 (stereo not shown) [Example 127, N-((3-tert-butyl-1-(pyridin-2-yl)-1H-pyrazol-5-yl)methyl)-2-(3-fluoro-4-(methylsulfonamidmethyl)phenyl)propanamide] | 58.1
CC(C(=O)NCc1cc(C(F)(F)F)nn1NCc1ccccn1)c1ccc(CNS(C)(=O)=O)c(F)c1 (stereo not shown) [Example 129, 2-(3-fluoro-4-(methylsulfonamidmethyl)phenyl)-N-((1-(pyridin-2-ylmethylamino)-3-(trifluoromethyl)-1H-pyrazol-5-yl)methyl)propanamide] | 63.6
Cc1c(C(F)(F)F)nn(-c2cccc(Cl)c2)c1CNC(=O)Cc1cccc(F)c1 [Example 130, N-((1-(3-chlorophenyl)-4-methyl-3-(trifluoromethyl)-1H-pyrazol-5-yl)methyl)-2-(3-fluorophenyl)acetamide] | 112
Cc1c(C(F)(F)F)nn(-c2cccc(Cl)c2)c1CNC(=O)C(C)c1ccc(CNS(C)(=O)=O)c(F)c1 (stereo not shown) [Example 134, N-((1-(3-chlorophenyl)-4-methyl-3-(trifluoromethyl)-1H-pyrazol-5-yl)methyl)-2-(3-fluoro-4-(methylsulfonamidmethyl)phenyl)propanamide] | 2.5
CC(C(=O)NCc1cc(C(F)(F)F)nn1C1CCCCC1)c1ccc(CNS(C)(=O)=O)c(F)c1 (stereo not shown) [Example 137, N-((1-cyclohexyl-3-(trifluoromethyl)-1H-pyrazol-5-yl)methyl)-2-(3-fluoro-4-(methylsulfonamidmethyl)phenyl)propanamide] | 65.1
O=C(Cc1cc(F)c(O)c(F)c1)NCc1cc(C(F)(F)F)nn1-c1cccc(Cl)c1 [Example 147, N-((1-(3-chlorophenyl)-3-(trifluoromethyl)-1H-pyrazol-5-yl)methyl)-2-(3,5-difluoro-4-hydroxyphenyl)acetamide] | 26
N-((1-(3-chlorophenyl)-3-cyclopropyl-1H-pyrazol-5-yl)methyl)-2-(3-fluoro-4-(methylsulfonylmethyl)phenyl)propanamide [Example 128] | 16.3

These molecules were tested against T1, hVR1 (assay: FLIPR assay hVR1, after pH stimulus). Conditions: not given.
Type: cell-based
Design: key to IC50 (human being) hVR1 pH: result in words (NE / AG): AG=agonist; pAG=partial agonist; NE=no effect
Method: In this assay, the influx of Ca^2+ through the channel is quantified with the aid of a Ca^2+-sensitive dye (type Fluo-4, Molecular Probes Europe BV, Leiden, the Netherlands) in a fluorescent imaging plate reader (FLIPR, Molecular Devices, Sunnyvale, USA). Chinese hamster ovary cells (CHO K1 cells, European Collection of Cell Cultures (ECACC) United Kingdom) are stably transfected with the VR1 gene. For functional testing, these cells are plated out on poly-D-lysine-coated black 96-well plates having a clear base (BD Biosciences, Heidelberg, Germany) at a density of 25,000 cells/well. […] Subsequently, the plates are washed three times with HBSS buffer and after further incubation for 15 minutes at RT used for Ca^2+ measurement in a FLIPR assay. […] Quantification is carried out by measuring the highest fluorescence intensity (FC, fluorescence counts) over time. The FLIPR protocol consists of 2 substance additions. […] Desensitising agonists and antagonists led to suppression of the Ca^2+ influx. […] Ki values for the test substances were obtained by conversion by means of the Cheng-Prusoff equation (Cheng, Prusoff; Biochem. Pharmacol. 22, 3099-3108, 1973).

Molecule | IC50 (human being) hVR1 pH: result in words (NE / AG)
CC(C(=O)NCc1cc(C(C)(C)C)nn1-c1cccc(Cl)c1)c1ccc(N2CCCS2(=O)=O)c(F)c1 (stereo not shown) [Example 55, N-((3-tert-butyl-1-(3-chlorophenyl)-1H-pyrazol-5-yl)methyl)-2-[4-(1,1-dioxidoisothiazolidin-2-yl)-3-fluorophenyl]propanamide] | NE

Same assay, conditions: read-out: IC50 (human being) hVR1 pH: inhibition (as a percentage) @ 10 μM, inhibition determined at 10 μM

Molecule | inhibition at 10 µM [%]
Cc1ccc(-n2nc(C(C)(C)C)cc2CNC(=O)C(C)c2ccc(NS(C)(=O)=O)c(F)c2)cc1 (stereo not shown) [Example 12, N-((3-tert-butyl-1-p-tolyl-1H-pyrazol-5-yl)methyl)-2-(3-fluoro-4-(methylsulphonamido)phenyl)propanamide] | 40
C[C@H](C(=O)NCc1cc(C(C)(C)C)nn1-c1cccc(Cl)c1)c1ccc(NS(C)(=O)=O)c(F)c1 [Example 17, (S)-N-((3-tert-butyl-1-(3-chlorophenyl)-1H-pyrazol-5-yl)methyl)-2-(3-fluoro-4-(methylsulphonamido)phenyl)propanamide] | 37
